pIC50: −log10 of the molar value.
Columns and labels:
human V1a receptor = target: T1, human V1a receptor (Homo sapiens, UniProt P37288); assay: Cellular in vitro assay for vasopressin receptor activity, V1a cell line (aequorin luminescence); format: cell-based; details: for pIC50: CHO cell line transfected with human V1a receptor, agonist [Arg8]-vasopressin at EC50 concentration, read-out: IC50hV1a; for ratio IC50 hV2/hV1a: ratio of the IC50 on human V2 to the IC50 on human V1a
T1 construct: expressed in transfected cells; host or cells: CHO K1 (ATCC), also stably transfected with a modified aequorin
T1 sequence (P37288 whole entry): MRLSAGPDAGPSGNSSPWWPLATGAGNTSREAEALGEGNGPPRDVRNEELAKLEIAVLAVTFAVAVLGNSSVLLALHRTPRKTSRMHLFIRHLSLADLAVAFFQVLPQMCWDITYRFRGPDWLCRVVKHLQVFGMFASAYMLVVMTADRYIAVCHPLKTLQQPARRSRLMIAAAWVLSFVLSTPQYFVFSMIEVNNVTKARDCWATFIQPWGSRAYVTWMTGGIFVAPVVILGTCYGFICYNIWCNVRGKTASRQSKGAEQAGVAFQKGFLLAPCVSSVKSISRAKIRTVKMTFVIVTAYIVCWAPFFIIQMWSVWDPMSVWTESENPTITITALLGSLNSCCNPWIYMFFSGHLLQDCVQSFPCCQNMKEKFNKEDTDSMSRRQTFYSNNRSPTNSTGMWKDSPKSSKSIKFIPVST
Outline: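 CHO K1 cells stably expressing human V1a receptor with aequorin photoprotein, loaded overnight with coelenterazine. Compounds preincubated 10 min at various concentrations, then challenged with [Arg^8]-vasopressin at EC50 concentration. Calcium-driven luminescence read immediately; IC50 values derived.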

human V2 receptor = target: T2, human V2 receptor (Homo sapiens, UniProt P30518); assay: Cellular in vitro assay for vasopressin receptor activity, V2 cell line (CRE-luciferase); format: cell-based; details: CHO cell line transfected with human V2 receptor; agonist [Arg8]-vasopressin at EC50 concentration, 3 hours; read-out: IC50hV2
T2 construct: expressed in transfected cells; host or cells: CHO K1 (ATCC) line expressing firefly luciferase under a CRE-responsive promoter
T2 sequence (P30518 whole entry): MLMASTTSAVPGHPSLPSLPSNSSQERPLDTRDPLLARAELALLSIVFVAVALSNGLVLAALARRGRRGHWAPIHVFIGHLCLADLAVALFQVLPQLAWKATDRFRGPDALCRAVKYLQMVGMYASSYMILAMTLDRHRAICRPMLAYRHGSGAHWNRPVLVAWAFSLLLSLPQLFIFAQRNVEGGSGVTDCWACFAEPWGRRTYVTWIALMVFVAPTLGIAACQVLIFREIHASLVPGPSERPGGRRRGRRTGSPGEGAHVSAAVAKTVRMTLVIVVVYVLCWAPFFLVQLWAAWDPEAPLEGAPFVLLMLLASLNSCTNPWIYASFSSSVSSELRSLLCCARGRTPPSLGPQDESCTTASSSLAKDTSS

pIC50 (human V1a receptor) | ratio IC50 hV2/hV1a (human V1a receptor) | pIC50 (human V2 receptor) | Structure (SMILES)
8.48 | 1.3 | 8.37 | CC(F)(F)c1nc(Cn2nc(-c3ccc(Cl)cc3)n(C[C@H](O)C(F)(F)F)c2=O)nn1-c1c(Cl)cccc1Cl [Example 68, 5-(4-Chlorophenyl)-2-{[1-(2,6-dichlorophenyl)-5-(1,1-difluoroethyl)-1H-1,2,4-triazol-3-yl]methyl}-4-[(2S)-3,3,3-trifluoro-2-hydroxypropyl]-2,4-dihydro-3H-1,2,4-triazol-3-one]
8.73 | 0.4 | 9.12 | CCc1ccccc1-n1nc(Cn2nc(-c3ccc(Cl)cc3)n(C[C@H](O)C(F)(F)F)c2=O)nc1C(C)F (mixture of isomers) [Example 28, 5-(4-Chlorophenyl)-2-({1-(2-ethylphenyl)-5-[1-fluoroethyl]-1H-1,2,4-triazol-3-yl}methyl)-4-[(2S)-3,3,3-trifluoro-2-hydroxypropyl]-2,4-dihydro-3H-1,2,4-triazol-3-one]
9.46 | 2.0 | 9.15 | CC(F)c1nc(Cn2nc(-c3ccc(Cl)cc3)n(C[C@H](O)C(F)(F)F)c2=O)nn1-c1ccccc1Cl (mixture of isomers) [Example 1, 5-(4-Chlorophenyl)-2-({1-(2-chlorophenyl)-5-[1-fluoroethyl]-1H-1,2,4-triazol-3-yl}methyl)-4-[(2S)-3,3,3-trifluoro-2-hydroxypropyl]-2,4-dihydro-3H-1,2,4-triazol-3-one]
8.43 | 8.8 | 7.48 | CC(F)c1nc(Cn2nc(-c3ccc(Cl)cc3)n(C[C@H](O)C(F)(F)F)c2=O)nn1-c1ccccc1C(F)(F)F (single isomer, unassigned) [Example 23]
9.03 | 12.2 | 7.95 | CC(F)(F)c1nc(Cn2nc(-c3ccc(Cl)cc3)n(C[C@H](O)C(F)(F)F)c2=O)nn1-c1cnccc1Cl [Example 54, 5-(4-Chlorophenyl)-2-{[1-(4-chloropyridin-3-yl)-5-(1,1-difluoroethyl)-1H-1,2,4-triazol-3-yl]methyl}-4-[(2S)-3,3,3-trifluoro-2-hydroxypropyl]-2,4-dihydro-3H-1,2,4-triazol-3-one]
7.51 | 1.1 | 7.46 | CC(C)c1ccccc1-n1nc(Cn2nc(-c3ccc(Cl)cc3)n(C[C@H](O)C(F)(F)F)c2=O)nc1C(C)(F)F [Example 72, 5-(4-Chlorophenyl)-2-({5-(1,1-difluoroethyl)-1-[2-(propan-2-yl)phenyl]-1H-1,2,4-triazol-3-yl}methyl)-4-[(2S)-3,3,3-trifluoro-2-hydroxypropyl]-2,4-dihydro-3H-1,2,4-triazol-3-one]
8.53 | 2.3 | 8.16 | CC(F)(F)c1nc(Cn2nc(-c3ccc(Cl)cc3)n(C[C@H](O)C(F)(F)F)c2=O)nn1-c1c(F)cccc1Cl [Example 69, 2-{[1-(2-Chloro-6-fluorophenyl)-5-(1,1-difluoroethyl)-1H-1,2,4-triazol-3-yl]methyl}-5-(4-chlorophenyl)-4-[(2S)-3,3,3-trifluoro-2-hydroxypropyl]-2,4-dihydro-3H-1,2,4-triazol-3-one]
8.69 | 1.5 | 8.51 | CC(F)c1nc(Cn2nc(-c3ccc(Cl)cc3)n(C[C@H](O)C(F)(F)F)c2=O)nn1-c1c(Cl)cccc1Cl (mixture of isomers) [Example 43, 5-(4-Chlorophenyl)-2-({1-(2,6-dichlorophenyl)-5-[1-fluoroethyl]-1H-1,2,4-triazol-3-yl}methyl)-4-[(2S)-3,3,3-trifluoro-2-hydroxypropyl]-2,4-dihydro-3H-1,2,4-triazol-3-one]
